18 compounds from patent publication US9737525B2, “Small molecule activators of NRF2 pathway” (The General Hospital Corporation, priority 2013, dated 2017) can be followed below.

The test system of assay [1] is NRF2-responsive proteins NQO1 and GCLM. The assay is described as follows: Induction of NQO1 and GCLM proteins in differentiated ST14A cells (immunoblotting). It counts as cell-based, rat. Conditions: differentiated HD mutant and wild type ST14A cells, 24 hours. The method, then: (§1) To assess protein levels, cell extracts were prepared from cells washed with PBS and lysed with buffer containing 2% SDS, Complete EDTA-free Protease Inhibitor Cocktail (Roche) and 1 mM phenylmethylsulfonyl fluoride. To prepare brain extracts for analysis, frozen mouse cortical tissues were homogenized in PBS containing protease inhibitors with an Kontes Pellet Pestle (Kimble/Kontes). They were later sonicated and lysed overnight at 4° C. in 2× volume of lysis buffer containing 2% SDS and protease inhibitors. Protein concentrations in ST14A cell extracts and homogenized cortical tissues were evaluated using a BCA analysis kit and normalized. Samples were prepared in a SDS buffer containing DTT and separated on bis-acrylamide protein gels via electrophoresis and transferred onto a 0.2 μm PVDF membrane). Membranes were probed for NQO1 (Sigma N5288, 1:1,000), GCLM, (Abcam ab126704, 1:800), SIRT2 (Sigma S8447, 1:2,500), histone H3 (Cell Signaling 4499, 1:2,000), acetylated H3 (K56) (Millipore 04-1135, 1:500), TNFα (Abcam ab1793, 1:1,500), GADPH (Millipore MAB374, 1:10,000), actin (Sigma A2066, 1:1250), α-tubulin (Sigma T6074, 1:20,000), and acetylated α-tubulin (Sigma T6793, 1:2,500) overnight in 5% milk in PBST at 4° C. on a rocker. Membranes were thrice washed in PBST for 15 min on a shaker and incubated in either an anti-rabbit-HRP (Bio-Rad 170-5046, 1:10,000) or anti-mouse-HRP (Sigma A3682, 1:4,000) secondary solution as appropriate in 3% milk in PBST for 1 hr at room temperature on a rocker. After four washes of 15 min in PBST on a shaker, blots were visualized using SuperSignal West Pico Chemiluminescent Substrate (Pierce 34080) or SuperSignal West Dura Extended Duration Substrate (Thermo 34075) and exposed on Scientific Imaging Film (Kodak 864 6770).
Compound bioactivity was tested in the rat embryonic striatal cell lines ST14A, which stably express either a mutant expanded repeat (128Q) or wild type (26Q) 546 amino acid huntingtin (HTT) fragment (a generous gift of E. Cattaneo) (Ehrlich et al., 2001) ST14A cells were propagated at 33° C. in the presence of serum. To induce neuronal differentiation, cells were serum deprived and cultured at 37° C. in the presence of N2 supplement. Cells were treated with compounds concurrently with induction of neuronal differentiation for 24 hours, as described (Quinti et al., 2010).
The NRF2 activation properties of further MIND4 structural analogs with variable potencies of SIRT2 inhibition were tested as described previously (see Table 1) Changes in expression of the canonical NRF2-responsive proteins NQO1 and GCLM, the transcription of which was induced by MIND4, was selected as a readout of pathway activation. Protein levels of NQO1 and GCLM were examined by immunoblotting in compound treated mutant HD and wild-type ST14A cells. […] This hypothesis was tested using a second panel of MIND4 analogs (see Table 3).
For orientation: A western blot detects proteins with antibodies after separation by electrophoresis.

Another assay has as its system NQO1. The assay can be described thus: Quantitative NQO1 inducer bioassay in Hepa1c1c7 cells. In kind it is cell-based, murine. Conditions: for CD value (Concentration which Doubles the specific activity of NQO1): Hepa1c1c7 cells; for CD value (Concentration which Doubles the specific activity of NQO1) / EC (2-fold NQO1 activity): 48 hr exposure; for Effect of GSH pre-incubation on NQO1 inducer potency: 1 mM GSH at 37° C. for 30 min before cell treatment; for EC (2-fold NQO1 activity): Mus musculus, Hepa-1c1c7, Table 3, Concentration which Doubles the specific activity of NQO1, read-out: NQD1 CD.

The target in assay [2] is human recombinant SIRT2 deacetylase (Homo sapiens (Human), UniProt Q8IXJ6). The assay can be described thus: Sirtuin biochemical deacetylation assay, SIRT2. The method, then: Modulation of sirtuin activity by compounds was assessed using the Flour de Lys fluorescent biochemical assay in a 96-well format as described (Outeiro et al., 2007). The deacetylation reaction was performed at 37° C. for an hour in the presence of human recombinant enzymes: SIRT1 (BioMol-SE-239) 1 unit/per reaction, SIRT2 (BioMol-SE-251) 5 units/per reaction, or SIRT3 (BioMol-SE-270) 5 units/per reaction, compound of interest, standard buffer, 50 μM substrate, and 500 μM NAD^+ according to the manufacturer's protocol. […]

The test system of another assay is NRF2/KEAP1 in MEFs. The assay can be described thus: NQO1 and NRF2 levels in mouse embryonic fibroblasts (MEFs), western blot. It counts as cell-based. The conditions noted are these: wild-type MEFs, 5 hr exposure. How it is done: Mouse embryonic fibroblasts (MEFs) from wild-type (WT), NRF2-knockout (NRF2-KO) or KEAP1-knockout (KEAP1-KO) mice, were cultured in plastic dishes (Invitrogen) coated for 30 min with 0.1% (w/v) gelatin before use. The cell culture medium was Iscoves Modified Dulbecco's Medium (with L-glutamine) supplemented with human recombinant epidermal growth factor (10 ng/mL), 1× insulin/transferrin/selenium, and 10% (v/v) heat-inactivated FBS, all from Invitrogen. Cells were maintained at 5% CO2 in air at 37° C. For experiments, cells (250,000 per well) were grown for 24 hr on 6-well plates, and then treated with solvent control (0.1% DMSO, v/v) or compounds for either 5 hr or 24 hr. For western blot analysis, cells were washed twice with ice-cold phosphate buffered saline (PBS) and lysed in 150 μl of RIPA buffer (50 mM Tris-Cl pH 7.5, 150 mM NaCl, 0.5% sodium deoxycholate, 1% NP-40, 0.1% SDS and 1 mM EDTA), containing 1 protease inhibitor cocktail tablet (Roche) per 10 ml of buffer. Cell debris were removed by centrifugation at 16,300×g for […] at 4° C., and protein concentrations were determined by the BCA assay (Thermo). Proteins were resolved by SDS/PAGE, transferred to immobilon-P membranes, and probed with specific antibodies against NQO1 (1:1000) or NRF2 (1:1000). Equal loading was confirmed by probing the blots with an antibody against β-actin (mouse monoclonal, 1:10000), from Sigma, Dorset, United Kingdom.
For nuclear-cytoplasmic separation, WT MEFs (500,000 per dish) were grown for 24 hr on 6-cm plates, and then treated with solvent control (0.1% DMSO, v/v) or 0.5 μM MIND4-17. At the end of each treatment time, cells were placed on ice and washed twice with ice-cold PBS and subsequently lysed in buffer A [10 mM KCl, 5 mM MgCl2, 50 mM Tris-HCl (pH 7.5), 0.5% Nonidet P-40 (Roche), 1 mM dithioretitol (DTT) (Sigma), containing one protease inhibitor tablet and one phosphatase inhibitor tablet (both from Roche) per each 10 ml of buffer]. The lysates were subjected to centrifugation (Spectrafuge 24D, Labnet) at 1,000×g for 5 min at 4° C. The supernatant (cytoplasmic fraction) was transferred to a fresh Eppendorf tube. The pellet (nuclear fraction) was washed three times in buffer A before being dissolved in buffer B [2% SDS, 150 mM NaCl, 65 mM Tris-HCl (pH 8.0)] and sonicated for 30 sec. Finally, the lysates were subjected to western blot analysis. The blots were probed with antibodies against GAPDH (rabbit polyclonal, 1:5000) and Lamin A/C (rabbit polyclonal, 1:1000, Gene Tex, Calif., United States of America) to confirm fraction purity and equal protein loading.

For assay [3], the system named is α-tubulin K40 and histone H3 acetylation. The assay is described as follows: Acetylation of SIRT2 substrates in wild type primary cortical neurons. In kind it is cell-based, mouse. Details: α-Tubulin acetylation: dose or concentration left out as unconfirmed. Conditions: primary neurons. The method, then:
as §1
Based upon the robust neuroprotection observed in HD model systems expressing both mutant HTT fragments and full-length mutant HTT, verification of the bioactivity of MIND4 as SIRT2 inhibitor in primary neurons was sought. […]

Structures can show the parent of a compound that is named as a salt. A value given as a limit tells only on which side of the number the result lay.

Sequence of human recombinant SIRT2 deacetylase (Q8IXJ6 whole entry): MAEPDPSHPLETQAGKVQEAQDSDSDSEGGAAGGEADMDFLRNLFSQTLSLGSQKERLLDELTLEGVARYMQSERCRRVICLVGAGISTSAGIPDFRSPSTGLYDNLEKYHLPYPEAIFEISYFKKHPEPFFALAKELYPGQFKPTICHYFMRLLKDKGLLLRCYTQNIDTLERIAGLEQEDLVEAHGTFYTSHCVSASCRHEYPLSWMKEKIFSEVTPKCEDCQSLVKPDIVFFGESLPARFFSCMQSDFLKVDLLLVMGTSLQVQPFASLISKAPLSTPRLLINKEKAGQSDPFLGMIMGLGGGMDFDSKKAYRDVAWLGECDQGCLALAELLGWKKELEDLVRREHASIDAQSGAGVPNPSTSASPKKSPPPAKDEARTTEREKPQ

Regarding `COC(=O)/C=C/C(=O)OC` [dimethyl fumarate, reference compound], the “Induction of NRF2-responsive proteins NQO1 and GCLM” value (“Induction” below) in assay [1] was “dose-dependent induction of NQO1 protein”. Also, the “CD value (Concentration which Doubles the specific activity of NQO1)” value (shortened to “CD value”) in the assay on NQO1 worked out at 9 µM.

Usually IC50 stands for the concentration at which inhibition is half-maximal. Turning to `O=[N+]([O-])c1ccc(Sc2nnc(-c3ccc(Cl)cc3)n2-c2ccccc2)nc1` [MIND4-17-33], in assay [1], the “Induction” value is given as “potent induction of NQO1 protein”. The IC50 in assay [2] (Table 3) was found to be 7.5 µM. Besides, in the assay with NQO1, the “Effect of GSH pre-incubation on NQO1 inducer potency” value (“Effect of GSH pre-incubation” below) is recorded as “significantly affected by pre-incubation with GSH”, the “CD value” value was 0.3 µM and the EC (2-fold NQO1 activity) amounted to 0.3 µM.

For the compound `c1ccc(CSc2nnc(COc3cccc4ccccc34)n2Cc2ccccc2)cc1` [MIND4-22], the IC50 in assay [2] (Table 1) turned out to be 6 µM.

On to `O=[N+]([O-])c1cnc(Sc2nnc(-c3ccc(Cl)cc3)n2-c2ccccc2)c(Br)c1` [MIND4-17-56], for which the “Induction” value in assay [1] is recorded as “lower potency in its ability to induce NQO1”. Besides, the IC50 in assay [2] (Table 3) was determined as 0.75 µM. Further, in the assay on NQO1, the “Effect of GSH pre-incubation” value is listed as “much more modest”, the “CD value” value is 2.5 µM and the EC (2-fold NQO1 activity) worked out at 2.5 µM.

Turning to `c1ccc(CSc2nnc(COc3ccccc3)n2-c2ccccc2)cc1` [MIND4-19], the IC50 in assay [2] (Table 1) was 7 µM.

Consider `COc1ccc(CSc2nnc(COc3cccc4ccccc34)n2Cc2ccccc2)cc1` [MIND4-23], for which the IC50 in assay [2] (Table 1) amounted to 9 µM.

For `Clc1ccc(-n2c(COc3cccc4ccccc34)nnc2SCc2ccccc2)cc1` [MIND4-2], the IC50 in assay [2] (Table 1) worked out at 12 µM.

Regarding `O=[N+]([O-])c1ccc(Sc2nnc(-c3ccccc3)n2-c2ccccc2)c2ncccc12` [MIND4A], the “Induction” value in assay [1] is recorded as “higher potency induction”. The IC50 in assay [2] (Table 3) turned out to be 7.5 µM. Also, in assay [2] (dose-response), the SIRT2 inhibition entry is “lower potency of SIRT2 inhibition”. In the assay with NQO1, the “Effect of GSH pre-incubation” value is reported as “much more modest”, the “CD value” value was 1 µM and the EC (2-fold NQO1 activity) stood at 1 µM.

`c1ccc(CSc2nnc(COc3cccc4ccccc34)n2-c2ccccc2)cc1` [MIND4-11]: the IC50 in assay [2] (Table 1) and in assay [2] (Table 3) was 4.5 µM throughout. The EC (2-fold NQO1 activity) with NQO1 is greater than 10 µM.

`Brc1cccc(CSc2nnc(COc3ccccc3)n2-c2ccccc2)c1` [MIND4-20]: the IC50 in assay [2] (Table 1) turned out to be 5 µM.

With `O=[N+]([O-])c1ccc(Sc2nnc(Cc3ccccc3)n2-c2ccccc2)nc1` [MIND4-17-15], in assay [2] (Table 3), the IC50 was greater than 50 µM. The EC (2-fold NQO1 activity) in the assay with NQO1 was 0.3 µM.

With `Cn1cnnc1Sc1ccc([N+](=O)[O-])c2cccnc12` [MIND4B], in assay [2] (Table 3), the IC50 is greater than 50 µM. Moreover, the EC (2-fold NQO1 activity) in the assay with NQO1 was 2 µM.

As to `C[S+]([O-])CCCCN=C=S` (stereo not drawn) [sulforaphane, reference compound], the “Accumulation of total NRF2 protein” value in the assay with NRF2/KEAP1 in MEFs was “readily detectable”. In addition, the “CD value” value with NQO1 amounted to 0.18 µM.

`O=[N+]([O-])c1ccc(Sc2nnc(COc3ccccc3)[nH]2)nc1` [MIND4-17-3]: the IC50 in assay [2] (Table 3) is greater than 50 µM. For the same compound, in the assay on NQO1, the EC (2-fold NQO1 activity) stood at 7.5 µM.

With `O=[N+]([O-])c1ccc(Sc2nnc(COc3ccccc3)n2-c2ccccc2)c2cccnc12` [MIND4C], the “Induction” value in assay [1] is “weaker activation”. In addition, in assay [2] (Table 3), the IC50 was greater than 20 µM. For the same compound, the “Accumulation of total NRF2 protein” value in the assay on NRF2/KEAP1 in MEFs was “to much lesser extent”. In addition, the EC (2-fold NQO1 activity) with NQO1 came out at 5 µM.

On to `O=C(CCCCCCC(=O)Nc1ccc([C@H]2O[C@@H](CSc3nc(-c4ccccc4)c(-c4ccccc4)o3)C[C@@H](c3ccc(CO)cc3)O2)cc1)NO` [tubacin, reference compound], for which the α-Tubulin acetylation result in assay [3] is on record as “significantly increased α-tubulin acetylation”.

Turning to `c1ccc(CSc2nnc(COc3cccc4cccnc34)n2-c2ccccc2)cc1` [MIND4-12], in assay [2] (Table 1), the IC50 amounted to 9 µM.

Take `O=[N+]([O-])c1ccc(CSc2nnc(COc3ccccc3)n2-c2ccccc2)cc1` [MIND4-21]: the IC50 in assay [2] (Table 1) and in assay [2] (Table 3) was 10 µM throughout.
